Assay [1] has as its target Glucagon-like peptide 1 receptor (Homo sapiens, UniProt P43220). Description: Agonist activity at human GLP-1R expressed in CHO cells assessed as increase in cAMP production incubated for 30 mins by Eu-cAMP tracer based microplate reader analysis. Format: functional, cell-based. For orientation: cAMP levels reflect the balance of adenylyl cyclase and phosphodiesterase activity.

Assay [2] deals with T1, Gastric inhibitory polypeptide receptor (Homo sapiens, UniProt P48546).
T1 sequence (P48546 whole entry): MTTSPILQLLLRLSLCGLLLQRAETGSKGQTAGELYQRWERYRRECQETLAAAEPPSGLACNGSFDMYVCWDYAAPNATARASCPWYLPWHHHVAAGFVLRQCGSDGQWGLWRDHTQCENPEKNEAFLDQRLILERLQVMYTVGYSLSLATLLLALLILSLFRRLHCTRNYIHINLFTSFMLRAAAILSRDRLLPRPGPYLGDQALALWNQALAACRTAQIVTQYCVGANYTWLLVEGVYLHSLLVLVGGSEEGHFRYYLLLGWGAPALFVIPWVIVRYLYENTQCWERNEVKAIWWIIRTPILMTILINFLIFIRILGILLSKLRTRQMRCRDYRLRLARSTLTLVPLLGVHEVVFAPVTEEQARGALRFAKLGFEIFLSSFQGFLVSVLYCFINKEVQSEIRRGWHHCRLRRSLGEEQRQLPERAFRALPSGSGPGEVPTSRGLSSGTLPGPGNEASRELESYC
Description: Agonist activity at human GIPR expressed in CHO cells assessed as increase in cAMP production incubated for 30 mins by Eu-cAMP tracer based microplate reader analysis. It is filed as functional, cell-based.

pEC50: −log10 of the molar value. Where a SMILES comes first, the peptide text is derived from it. [ ]: non-standard residue; d: D form. The star is where a group is joined. X1 = N[C@@H](CCCCNC(=O)CC[C@H](NC(=O)CCCCCCCCCCCCCCCCCCC(=O)O)C(=O)O)C(=O)NCCCC[C@H](N)C(=O)N[C@@H](CCCCNC(=O)C*)C(=O)O; X7 = O=C(O)CCCCCCCCCCCCCCCCCCC(=O)NCCOCCOCC(=O)N[C@@H](CCC(=O)N[C@H](CCC(=O)N[C@H](CCCCNC(=O)C*)C(=O)O)C(=O)O)C(=O)O; X8 = O=C(O)CCCCCCCCCCCCCCCCC(=O)N[C@@H](CCC(=O)NCCOCCOCC(=O)NCCOCCOCC(=O)N[C@@H](CCCCNC(=O)C*)C(=O)O)C(=O)O; Aib = CC(C)(N)C(=O)O

For orientation: pEC50 means −log10 of the EC50, conventionally taken in molar units.

Sequence of Glucagon-like peptide 1 receptor (P43220 whole entry): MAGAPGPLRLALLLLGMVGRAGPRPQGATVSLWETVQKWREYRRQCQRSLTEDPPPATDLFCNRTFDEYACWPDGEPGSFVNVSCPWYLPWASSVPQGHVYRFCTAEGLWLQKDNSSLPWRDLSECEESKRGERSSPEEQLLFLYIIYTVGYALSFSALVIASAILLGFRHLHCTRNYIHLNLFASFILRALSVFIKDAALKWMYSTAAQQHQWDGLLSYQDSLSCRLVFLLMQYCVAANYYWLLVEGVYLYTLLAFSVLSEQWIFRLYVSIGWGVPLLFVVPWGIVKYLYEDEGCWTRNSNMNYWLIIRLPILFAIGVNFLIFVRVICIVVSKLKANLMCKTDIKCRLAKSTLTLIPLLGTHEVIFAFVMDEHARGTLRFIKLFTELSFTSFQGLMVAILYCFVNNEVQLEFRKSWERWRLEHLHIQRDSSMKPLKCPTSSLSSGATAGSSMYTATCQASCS

Take `CC(C)C[C@H](NC(=O)[C@H](CC(C)C)NC(=O)[C@H](Cc1c[nH]c2ccccc12)NC(=O)[C@H](CCC(N)=O)NC(=O)[C@@H](NC(=O)[C@H](Cc1ccccc1)NC(=O)[C@H](CC(C)C)NC(=O)[C@H](CCCCN)NC(=O)[C@H](C)NC(=O)[C@H](C)NC(=O)[C@H](CCC(N)=O)NC(=O)[C@H](CSCC(=O)NCCCC[C@@H](NC(=O)CC[C@@H](NC(=O)CC[C@H](NC(=O)COCCOCCNC(=O)CCCCCCCCCCCCCCCCCCC(=O)O)C(=O)O)C(=O)O)C(=O)O)NC(=O)[C@H](CCC(=O)O)NC(=O)[C@H](CC(C)C)NC(=O)[C@H](Cc1ccc(O)cc1)NC(=O)[C@H](Cc1ccc(O)cc1)NC(=O)[C@H](CO)NC(=O)[C@H](Cc1ccc(O)cc1)NC(=O)[C@H](CC(=O)O)NC(=O)[C@H](CO)NC(=O)[C@@H](NC(=O)[C@H](Cc1ccccc1)NC(=O)[C@@H](NC(=O)CNC(=O)[C@H](CCC(=O)O)NC(=O)C(C)(C)NC(=O)[C@@H](N)Cc1ccc(O)cc1)[C@@H](C)O)[C@@H](C)O)C(C)C)C(=O)N[C@@H](C)C(=O)NCC(=O)NCC(=O)N1CCC[C@H]1C(=O)N[C@@H](CO)C(=O)N[C@@H](CO)C(=O)NCC(=O)N[C@@H](C)C(=O)N1CCC[C@H]1C(=O)N1CCC[C@H]1C(=O)N1CCC[C@H]1C(=O)N[C@@H](CO)C(N)=O` (H-Y[Aib]EGTFTSDYSYYLEC(X7)QAAKLFVQWLLAGGPSSGAPPPS-NH2): the values for the pEC50 in assay [1] (cho) and in assay [2] (cho) were 9.29 and 9.70, respectively.
For `CC(C)C[C@H](NC(=O)[C@H](CC(C)C)NC(=O)[C@H](Cc1c[nH]c2ccccc12)NC(=O)[C@H](CSCC(=O)NCCCC[C@H](NC(=O)[C@@H](N)CCCCNC(=O)[C@@H](N)CCCCNC(=O)CC[C@H](NC(=O)CCCCCCCCCCCCCCCCCCC(=O)O)C(=O)O)C(=O)O)NC(=O)[C@@H](NC(=O)[C@H](Cc1ccccc1)NC(=O)[C@H](CC(C)C)NC(=O)[C@H](CCCCN)NC(=O)[C@H](C)NC(=O)[C@H](C)NC(=O)[C@H](CCC(N)=O)NC(=O)[C@H](CCCCN)NC(=O)[C@H](CCC(=O)O)NC(=O)[C@H](CC(C)C)NC(=O)[C@H](Cc1ccc(O)cc1)NC(=O)[C@H](Cc1ccc(O)cc1)NC(=O)[C@H](CO)NC(=O)[C@H](Cc1ccc(O)cc1)NC(=O)[C@H](CC(=O)O)NC(=O)[C@H](CO)NC(=O)[C@@H](NC(=O)[C@H](Cc1ccccc1)NC(=O)[C@@H](NC(=O)CNC(=O)[C@H](CCC(=O)O)NC(=O)C(C)(C)NC(=O)[C@@H](N)Cc1ccc(O)cc1)[C@@H](C)O)[C@@H](C)O)C(C)C)C(=O)N[C@@H](C)C(=O)NCC(=O)NCC(=O)N1CCC[C@H]1C(=O)N[C@@H](CO)C(=O)N[C@@H](CO)C(=O)NCC(=O)N[C@@H](C)C(=O)N1CCC[C@H]1C(=O)N1CCC[C@H]1C(=O)N1CCC[C@H]1C(=O)N[C@@H](CO)C(N)=O` (H-Y[Aib]EGTFTSDYSYYLEKQAAKLFVC(X1)WLLAGGPSSGAPPPS-NH2), the values for the pEC50 in assay [1] and in assay [2] were 9.54 and 8.14, respectively.
The like results for `CC(C)C[C@H](NC(=O)[C@H](CC(C)C)NC(=O)[C@H](Cc1c[nH]c2ccccc12)NC(=O)[C@H](CCC(N)=O)NC(=O)[C@@H](NC(=O)[C@H](Cc1ccccc1)NC(=O)[C@H](CC(C)C)NC(=O)[C@H](CCCCN)NC(=O)[C@H](C)NC(=O)[C@H](C)NC(=O)[C@H](CCC(N)=O)NC(=O)[C@H](CCCCN)NC(=O)[C@H](CCC(=O)O)NC(=O)[C@H](CC(C)C)NC(=O)[C@H](CSCC(=O)NCCCC[C@H](NC(=O)COCCOCCNC(=O)COCCOCCNC(=O)CC[C@H](NC(=O)CCCCCCCCCCCCCCCCC(=O)O)C(=O)O)C(=O)O)NC(=O)[C@H](Cc1ccc(O)cc1)NC(=O)[C@H](CO)NC(=O)[C@H](Cc1ccc(O)cc1)NC(=O)[C@H](CC(=O)O)NC(=O)[C@H](CO)NC(=O)[C@@H](NC(=O)[C@H](Cc1ccccc1)NC(=O)[C@@H](NC(=O)CNC(=O)[C@H](CCC(=O)O)NC(=O)C(C)(C)NC(=O)[C@@H](N)Cc1ccc(O)cc1)[C@@H](C)O)[C@@H](C)O)C(C)C)C(=O)N[C@@H](C)C(=O)NCC(=O)NCC(=O)N1CCC[C@H]1C(=O)N[C@@H](CO)C(=O)N[C@@H](CO)C(=O)NCC(=O)N[C@@H](C)C(=O)N1CCC[C@H]1C(=O)N1CCC[C@H]1C(=O)N1CCC[C@H]1C(=O)N[C@@H](CO)C(N)=O` (H-Y[Aib]EGTFTSDYSYC(X8)LEKQAAKLFVQWLLAGGPSSGAPPPS-NH2) were, in that order, 8.76 and 8.88.
